Results from patent US20090263489A1, “ANALGESIC AND ANTI-INFLAMMATORY COMPOSITIONS AND METHODS FOR REDUCING, PREVENTING OR TREATING PAIN AND INFLAMMATION” (Warsaw Orthopedic, Inc., priority 2008, published 2009).
Entries after “also recorded” stand apart in the source; their conditions may differ. Counter-ions that a name gives are not always drawn.

Assays:
[1] = test system: chronic constriction injury (CCI) rats; assay: Thermal paw withdrawal latency (Hargreaves test) in chronic constriction injury model; type: in vivo, Wistar rats; conditions: days 7 and 14, vs control (PBS)
Procedure: (§1) The behavioral animal model of chronic constriction injury (“CCI”) was chosen to evaluate the efficacy of an analgesic and anti-inflammatory agent as a pain and inflammation treatment. This model may mimic pain associated with sciatica in humans.
(§2) Fifty-Six male Wistar rats (Charles River Laboratories, Wilmington, Mass.) weighing 300±26 g the day of surgery (Day 1) were used in this study. All experiments were conducted in accordance with the International Association for the Study of Pain guidelines and approved by the Institutional Animal Care and Use Committee at SRI International, Inc (Menlo Park, Calif.). CCI was induced according to the method of Bennett and Xie. Briefly, each animal was anesthetized by intraperitoneal (IP) injection of sodium pentobarbital at a dose of 60 mg/kg. The animal's common sciatic nerve was exposed and freed from adherent tissue at mid-thigh by separating the biceps femoris muscles by blunt dissection. Four loose ligatures were placed 1 mm apart, using chromic gut suture (4-0 absorbable suture; Jorgensen Laboratories, Inc., Loveland, Colo.).
(§3) Seven animals were randomly assigned to each treatment group.
Withdrawal latencies to a noxious thermal stimulus were measured according to the Hargreaves test using a plantar analgesia instrument (Stoelting, Wood Dale, Ill.) on Days −2, 7, and 14 (see FIG. 3). The radiant infrared heat source stimulus intensity was set to IR50 and the cut-off time was set at 15 seconds. Rats were placed on a glass platform and allowed to habituate to the testing chambers for a minimum of 15 minutes prior to each testing session. The thermal stimulus was applied to the plantar surface of the paw. Thermal thresholds were defined as the latency in seconds at the first pain behavior, which includes paw withdrawal, flinching, biting and/or licking of the stimulated paw. The readings for all animals were averaged and the mean and standard error of the mean (SEM) were determined for each treatment group.

[2] = test system: chronic constriction injury (CCI) rats; assay: Mechanical allodynia (von Frey monofilaments, 50% paw withdrawal threshold) in chronic constriction injury model; type: in vivo, Wistar rats; conditions: days 8 and 15, vs control (PBS)
Procedure: as §1, §2, §3
Mechanical allodynia was measured using von Frey monofilaments (Stoelting, Wood Dale, Ill.) with varying stiffness (2.0-15.0 g) on Days −1, 8, and 15 as described previously (see FIG. 4). Animals were placed on a perforated metallic platform and allowed to habituate to their surroundings for a minimum of 15 minutes before testing. The 50% paw withdrawal threshold response was determined by a sequential increasing and/or decreasing of the stimulus strength (the “up-down method” of Dixon). Each filament was applied with enough pressure to cause a buckling effect. Absence of a paw lifting/withdrawal response after 5 seconds prompted the use of the filament of next higher weight. Paw withdrawal indicating a positive response prompted the use of a weaker filament. After the initial response (i.e., paw withdrawal), the testing continued for four additional measurements and was used to calculate the response threshold. Four consecutive positive responses received a score of 0.25 g, and five consecutive negative responses (i.e., no paw withdrawal) received a score of 15 g. The 50% paw withdrawal threshold was calculated using the formula: 10(Xf+kd)/10,000, where Xf is the final von Frey filament used (log units), k is a value that analyzes the response pattern (taken from the table published by Chaplan et al.), and d is the mean difference between stimuli (log units). The mean and standard error of the mean (SEM) were determined for each treatment group.

[3] = Solubility noted for preparing the formulations
[4] = 2 mg/kg/day IP daily, listed as sulindac

CC1=C(CC(=O)O)c2cc(F)ccc2C1=Cc1ccc([S+](C)[O-])cc1 (centres unmarked) [Sulindac, 2-[6-fluoro-2-methyl-3-[(4-methylsulfinylphenyl)-methylidene]inden-1-yl]-acetic acid]
thermal paw withdrawal latency: reducing pain and/or inflammation ([1]; 2 mg/kg/day IP daily): particularly effective at reducing pain and/or inflammation
thermal paw withdrawal latency: reducing pain and/or inflammation [1, 4]: effective at reducing pain and/or inflammation for 14 days
mechanical thresholds (von Frey): reducing pain and/or inflammation ([2]; 2 mg/kg/day IP daily): particularly effective at reducing pain and/or inflammation
mechanical thresholds (von Frey): reducing pain and/or inflammation [2, 4]: effective at reducing pain and/or inflammation for 15 days

CC[C@H](C)C(=O)O[C@H]1C[C@@H](C)C=C2C=C[C@H](C)[C@H](CC[C@@H]3C[C@@H](O)CC(=O)O3)[C@H]21 [Lovastatin, lovastatin]
thermal paw withdrawal latency: reducing pain and/or inflammation ([1]; 0.3 mg/kg/day IP daily): effective at reducing pain and/or inflammation for 14 days
thermal paw withdrawal latency: reducing pain and/or inflammation ([1]; 3 mg/kg/day IP daily): effective at reducing pain and/or inflammation for 14 days; also recorded: particularly effective at reducing pain and/or inflammation
Soluble in DMSO ([3]; DMSO): up to 40 mg/kg
mechanical thresholds (von Frey): reducing pain and/or inflammation ([2]; 0.3 mg/kg/day IP daily): effective at reducing pain and/or inflammation for 15 days
mechanical thresholds (von Frey): reducing pain and/or inflammation ([2]; 3 mg/kg/day IP daily): effective at reducing pain and/or inflammation for 15 days
mechanical thresholds (von Frey): reducing pain and/or inflammation ([2]; 3 mg/kg/day IP daily, listed as lovastatin): particularly effective at reducing pain and/or inflammation

N=C(N)NCCSSCCNC(=N)N [GED, guanidinoethyldisulfide]
thermal paw withdrawal latency: reducing pain and/or inflammation ([1]; 1 mg/kg/day IP daily): effective at reducing pain and/or inflammation for 14 days
thermal paw withdrawal latency: reducing pain and/or inflammation ([1]; 3 mg/kg/day IP daily): effective at reducing pain and/or inflammation for 14 days; also recorded: particularly effective at reducing pain and/or inflammation
solubility in organic solvents ([3]; printed 'irganic solvents'): insoluble
solubility ([3]; water): ≤ 5 mg/mL
mechanical thresholds (von Frey): reducing pain and/or inflammation ([2]; 1 mg/kg/day IP daily): effective at reducing pain and/or inflammation for 15 days; also recorded: particularly effective at reducing pain and/or inflammation
mechanical thresholds (von Frey): reducing pain and/or inflammation ([2]; 3 mg/kg/day IP daily): effective at reducing pain and/or inflammation for 15 days

COc1cccc([C@]2(O)CCCC[C@H]2CN(C)C)c1 (racemic) [Tramadol, (±)cis-2-[(dimethylamino)methyl]-1-(3-methoxyphenyl)cyclohexanol hydrochloride]
solubility ([3]; saline, saline or isotonic): ≥ 25 mg/mL
